The values below come from publication doi:10.1101/2025.01.23.634444v1, “The histidine kinase VraS orchestrates the cell-wall stress response in Staphylococcus aureus via its direct interaction with glycopeptides and β-lactams” (biorxiv, 2025).

Assay [1] has as its target T1, VraS (VraS-H6x) (Staphylococcus aureus, UniProt A0A0H2XJC3). The experiment in a line: saturation transfer difference NMR. The format is binding. The conditions noted are these: 20 µM VraS, 400 µM ampicillin, sodium phosphate pH 7.4, 280 mM NaCl, 6 mM KCl, 0.01% DDM, 10% D2O. Set-up: full-length, C-terminal His6 tag kept, codon-optimised synthetic gene, pET24a(+), expressed in E. coli BL21 Star (DE3) membranes, purified in DDM, reconstituted in liposomes; 347 residues, 40,867 Da tagged; dimer in DDM.

Assay [2] has as its target T1, VraS (VraS-H6x). The experiment in a line: biochemical.

As a reminder, the IC50 is the concentration that inhibits the measured activity by half.

T1 sequence (A0A0H2XJC3 entry or part of it): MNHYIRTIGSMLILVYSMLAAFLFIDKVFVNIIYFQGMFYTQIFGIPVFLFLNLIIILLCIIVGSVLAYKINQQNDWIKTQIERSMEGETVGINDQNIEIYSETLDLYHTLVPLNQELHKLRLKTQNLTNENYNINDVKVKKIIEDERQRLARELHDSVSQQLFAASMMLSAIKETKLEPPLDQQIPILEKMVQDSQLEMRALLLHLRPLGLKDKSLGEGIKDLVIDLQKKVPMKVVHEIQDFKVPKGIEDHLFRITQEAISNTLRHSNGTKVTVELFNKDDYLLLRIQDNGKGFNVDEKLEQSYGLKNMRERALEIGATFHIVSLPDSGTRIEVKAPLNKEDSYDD

As for `CC1(C)S[C@@H]2[C@H](NC(=O)[C@H](N)c3ccccc3)C(=O)N2[C@H]1C(=O)O` [ampicillin], the STD result on VraS (VraS-H6x) [1] was “the difference spectrum demonstrated the interaction of ampicillin with VraS”.

`CN[C@H](CC(C)C)C(=O)N[C@H]1C(=O)N[C@@H](CC(N)=O)C(=O)N[C@H]2C(=O)N[C@H]3C(=O)N[C@H](C(=O)N[C@H](C(=O)O)c4cc(O)cc(O)c4-c4cc3ccc4O)[C@H](O)c3ccc(c(Cl)c3)Oc3cc2cc(c3O[C@@H]2O[C@H](CO)[C@@H](O)[C@H](O)[C@H]2O[C@H]2C[C@](C)(N)[C@H](O)[C@H](C)O2)Oc2ccc(cc2Cl)[C@H]1O` [vancomycin] displayed an IC50 on VraS (VraS-H6x) [2] of 1600 ± 300 µM.
